Source: article PMC11428291, “Peptide and Protein Cysteine Modification Enabled by Hydrosulfuration of Ynamide” (ACS Central Science, 2024)
Values belong to the molecule of their own block, whether it stands above or below them.

Key:
[1] = Water solubility of ynamides (qualitative); assay type: physicochemical; conditions: qualitative statement
Description: To this end, N-methylynetoluenesulfonamide (MYTsA, 2a), the first-generation ynamide coupling reagent for peptide synthesis,[39] was tested in our model reaction as a reference. […] Further optimization was performed to implement this chemistry under biocompatible conditions, such as aqueous media, near-neutral pH (6–8), and physiological temperature. In parallel, the poor water-solubility of 2a led to a sluggish reaction in an MeCN/phosphate buffer mixture (pH 8, 3:7), giving 3aa in 80% yield over 24 h. Enhancing the solubility by replacing the methyl group of R^2 with a 2-hydroxyethyl group (2b) led to a more efficient reaction, with an 89% yield of 3ab. […] Substituting the p-toluenesulfonyl (Ts) group of 2a with a trifluoromethylsulfonyl (triflyl, Tf, 2e) group enhanced both the solubility in water and the reaction efficiency due to its stronger electron-withdrawing ability and increased hydrophilicity. This modification facilitated the reaction to completion within 20 min in phosphate buffer with minimal MeCN (5%), yielding the product (3ae) as a single Z-isomer in 95% yield, confirmed by NMR (Z:E > 99:1; see zoom-in ^1H NMR spectra in Figure 2b and details in SI). […] This underscores the versatility of ynamide functionalization via R^2 group modification, promising broad applicability in synthesizing diverse conjugates. […]

[2] = Reaction rate study: hydrosulfuration of glutathione (GSH) to ynamide; conditions: pseudo-first order, ynamide 0.25 mM, GSH 2.5, 5 and 10 mM, 5% MeCN, pH 8.0, 0.2 M PBS, 37 °C, UV-Visible absorbance at 244 nm, triplicate
Description: In line with our proposal, the conjugation of the optimal ynamide (2e) and peptide (1a) was sensitive to pH and was sluggish under neutral conditions (pH 6–7.5, Figure S14). […] To further dissect the reaction mechanism, the reaction was carried out in the presence of different types of radical scavengers; no negative effect on the reaction efficacy was observed. In addition, the thiyl radical chemistry of ynamide was examined in aqueous medium, but no reaction was detected (see the SI for details, Schemes S15–S16).
9) Reaction Rate study of the Peptide Conjugates
HO N N OH PBS, pH = 8.0, MeCN, 37 °CHONN OH
Figure S64.Reaction Rate study of the Peptide Conjugates
The reaction between Ynamide (2e) and glutathione (GSH) was measured under pseudo- first order conditions with 10, 20 and 40 equivalents of GSH by real-time monitor of conjugate reactio n using UV-Visible absorbance at 244 nm (max absorbance wavelength for 3me). Solutions were prepared in MeCN (5%), pH 8.0, 0.2 M PBS with Ynamide (0.25 mM) and GSH (2.5 mM, 5 mM and 10 mM). Data was recorded for 2-5 min and performed in triplicate at 37 ℃. The averages of the observed rates (kobs), determined by nonlinear regression analysis of the data points were plotted against the concentration of GSH and the bimolecular rate constant k2, […]
8. Trastuzumab R eduction […]

[3] = assay type: physicochemical; conditions: conjugate 10 μM, 10 mM H2O2 in buffer, pH 4, 8 and 10, 37 °C, 24 h (Figure S59)
Excerpt: (§1) The stability of the conjugated products is of the utmost importance for developing a powerful peptide and protein modification strategy.[6] […] Moreover, the cleavage of 3ae in the presence of external thiol to regenerate the unmodified 1a, which occurred in other methods,[16b],[33a] was not detected in our hands (using 2-mercaptoethanol, Figure S58). In contrast, the iodoacetamide (IAM) peptide conjugate decomposed under the aforementioned conditions (Figures S61–S63).
(§2) Figure S58.Stability of 3ae ( 1mM) in the presence of external thiol
(§3) 4) Stability of 3ae (10 μM) when treated with large excess ((10mM H2O2 in buffer) of
Figure S59.Stability of 3ae ( 10μM) when tr eated with large excess of H 2O2 (at pH 4, […]
7) Stability of iodoacetamide labelling product (10 μM) when treated with large
excess ((10mM H2O2 in buffer)of H 2O2 (at pH 2 and 13 at 37 °C) for 24 h
Figure S62.Stability of iodoacetamide labelling product (10 μM) when treated with
large excess of H2O2 (at pH 2 and 13at 37 °C)
8) Stability of iodoacetamide labelling product (10 μM) when treated with bovine
Figure S63.Stability of iodoacetamide labelling product (10 μM) when treated with […]

[4] = Stability of peptide conjugate in the presence of external thiol (2-mercaptoethanol); assay type: physicochemical; conditions: conjugate 1 mM, pH 8.0 (Figure S58)
Excerpt: as §1
7. Stability Study and Reaction Rate study of the Peptide Conjugates
1) Stability study of the peptide conjugate 3ae
Figure S56.Stability study of the peptide conjugate 3ae
2) Stability of 3ae (1 mM) in buffers at pH 2.0, pH 8.0, pH 10.0, pH 13.0 at 37 °C for
Figure S57.Stability of 3ae ( 1mM) in buffers at pH 2.0, pH 8.0,pH 10.0,pH 13.0
3) Stability of 3ae (1 mM) in the presence of external thiol ( 2- mercaptoethanol)，pH […]
as §2, §3
Figure S59.Stability of 3ae ( 10μM) when tr eated with large excess of H 2O2 (at pH 4,

- Water-solubility [1]: poor
Structure (SMILES): C#CN(C)S(=O)(=O)c1ccc(C)cc1 [2a, N-methylynetoluenesulfonamide]

- Solubility in water relative to 2a ([1]; compared with 2a): enhanced
Structure (SMILES): C#CN(CCO)S(=O)(=O)C(F)(F)F [2e]
- Apparent second-order rate constant for the thiol conjugation (k2, app.) [2]: 0.2399 ± 0.002 M^–1 s^–1

- β-syn elimination when treated with a large excess of H2O2 [3]: did not undergo β-syn elimination
- Cleavage in the presence of external thiol to regenerate the unmodified 1a [4]: not detected
Structure (SMILES): CCOC(=O)[C@H](CS/C=C\N(CCO)S(=O)(=O)C(F)(F)F)NC(=O)[C@H](C)NC(=O)OC(C)(C)C [3ae]
